The source of these data is publication PMC5478869, “New Hydroxycinnamic Acid Esters as Novel 5-Lipoxygenase Inhibitors That Affect Leukotriene Biosynthesis” (Mediators of Inflammation, 2017).

Structures are written as SMILES.

In this assay the target is T1, 5-LO (Homo sapiens, UniProt P09917).
T1 sequence (P09917 1-674): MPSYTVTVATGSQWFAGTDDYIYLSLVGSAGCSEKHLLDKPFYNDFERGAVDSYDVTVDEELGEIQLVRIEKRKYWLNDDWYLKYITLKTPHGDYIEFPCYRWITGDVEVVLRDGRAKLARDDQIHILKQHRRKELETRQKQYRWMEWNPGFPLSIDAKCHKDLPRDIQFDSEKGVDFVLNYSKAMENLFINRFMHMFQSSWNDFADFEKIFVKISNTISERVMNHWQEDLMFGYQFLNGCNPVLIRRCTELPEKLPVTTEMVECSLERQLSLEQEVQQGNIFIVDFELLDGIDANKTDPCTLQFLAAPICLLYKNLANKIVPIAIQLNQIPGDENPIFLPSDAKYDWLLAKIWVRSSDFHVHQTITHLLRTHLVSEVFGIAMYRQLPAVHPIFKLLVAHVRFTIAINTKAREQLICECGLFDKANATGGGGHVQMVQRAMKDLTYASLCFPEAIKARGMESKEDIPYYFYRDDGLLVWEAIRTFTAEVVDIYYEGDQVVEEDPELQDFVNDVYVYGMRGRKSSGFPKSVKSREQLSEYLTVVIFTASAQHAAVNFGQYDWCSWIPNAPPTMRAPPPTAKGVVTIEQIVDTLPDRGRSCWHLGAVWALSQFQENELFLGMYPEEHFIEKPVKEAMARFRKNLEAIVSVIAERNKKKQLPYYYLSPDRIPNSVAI
Briefly: Biosynthesis of 5-LO products by thapsigargin-stimulated PMNL. Set-up: endogenous in cells; host or cells: human polymorphonuclear leukocytes (PMNL) isolated from whole blood. The conditions noted are these: freshly isolated human PMNL, 5 min preincubation, 1 μM thapsigargin 15 min; 95% CI in brackets; read-out: IC50 (95% CI) for the inhibition of 5-LO product biosynthesis in human PMNL. Format: cell-based. The method, then:
Polymorphonuclear leukocytes (PMNL) were isolated as previously described. Briefly, whole blood was collected (with anticoagulant citrate dextrose (ACD)) and then centrifuged at 500 g for 10 min. Platelet-rich plasma (PRP) was set aside for platelet isolation (see below), and erythrocytes were removed by dextran sedimentation. After a centrifugation step at 900 g × 20 min at room temperature on a lymphocyte separation medium cushion (density, 1.077 g/ml) (Wisent), PMNL were obtained (>96%) followed by hypotonic lysis of the remaining erythrocytes. PMNL were counted and resuspended at 10^7 cells/ml in HBSS supplemented with 1.6 mM CaCl2. PRP was processed as previously described for platelet isolation. Briefly, PRP was centrifuged at 400 g for 2 min at room temperature to remove the remaining erythrocytes. The supernatant was then centrifuged at 1300g for 10 min to pellet platelets. Cells were resuspended in Tyrode Buffer pH 7.4 (134 mM NaCl, 2.9 mM KCl, 0.34 mM Na2HPO4, 12 mM NaHCO3, 20 mM HEPES, 1 mM MgCl2, 5 mM glucose, and 0.5 mg/ml BSA) at 3 × 10^8 cells/ml in the presence of 5 mM CaCl2.
Suspended PMNL (10^7 cells/ml) were incubated at 37°C with adenosine deaminase (0.3 U/ml, Sigma-Aldrich) and test compounds at indicated concentrations 5 min before stimulation. To initiate stimulation, 1 μM of thapsigargin (Sigma-Aldrich) was added to cells which were then incubated for 15 min at 37°C [31]. Two volumes of MeOH:MeCN (1 : 1) containing the internal standard PGB2 (100 ng/ml) was then added, and samples were processed for RP-HPLC analysis as described above.
Statistical analysis and graph design were performed with GraphPad Prism 5 software (GraphPad Software, San Diego, California). IC50 values were calculated from a sigmoidal concentration-response curve-fitting model and are expressed as means with 95% confidence intervals. All other data are expressed as mean ± SEM. One-way ANOVA with Dunnett's multiple comparison test (p < 0.05) were performed to determine significant difference from controls.
Figure 2 Effect of the test compounds on the biosynthesis of 5-LO products in transfected HEK293 cells (a) and thapsigargin-stimulated PMNL (b). (a) HEK293 cells expressing both 5-LO and FLAP were incubated in presence of the indicated compounds (1 μM) or their diluent (control, 0.5% DMSO) for 5 min, then biosynthesis of 5-LO products was initiated with the addition of 10 μM calcium ionophore A23187 and 10 μM arachidonic acid for 15 min. After stimulation, reactions were stopped and samples were processed for analysis of 5-LO products by RP-HPLC. Total 5-LO products measured represent the sum of LTB4, its trans isomers, and 5-hydroxyeicosatetraenoic acid. (b) Freshly isolated human PMNL were incubated in presence of test compounds (or their diluent control, DMSO 0.5%) at the indicated concentrations for 5 min. Biosynthesis of the 5-LO products was initiated with the addition of 1 μM of thapsigargin, followed by a 15 min incubation period at 37°C. The stimulation was then stopped and samples were processed for RP-HPLC analysis and total 5-LO products quantification. Total 5-LO products measured represent the sum of LTB4, its trans isomers, 20-COOH- and 20-OH-LTB4 and 5-hydroxyeicosatetraenoic acid. Data are expressed as means ± SEM of at least 3 independent experiments. ^∗Different from control, as determined by one-way ANOVA with Dunnett's multiple comparison test (p < 0.05).
What is called IC50 is the concentration that inhibits the measured activity by half. Regarding `C=C(C)CCOC(=O)/C=C/c1ccc(O)c(O)c1` [Compound 9], the IC50 was 870 nM.

Regarding `O=C(/C=C/c1ccc(O)c(O)c1)OCCc1ccccc1` [CAPE (2), Caffeic acid phenethyl ester, reference compound], the IC50 was 790 nM. Under `O=C(/C=C/c1ccc(O)c(O)c1)OCCc1ccc(F)cc1` [Compound 14] stands 1010 nM; under `COc1ccc(CCOC(=O)/C=C/c2ccc(O)c(O)c2)cc1` [Compound 16], 1290 nM.

`Cc1ccc(CCOC(=O)/C=C/c2ccc(O)c(O)c2)cc1` [Compound 15]: the IC50 stood at 1040 nM. In the case of `O=C(/C=C/c1ccc(O)c(O)c1)OCCCc1ccccc1` [Compound 13], the concentration for half-maximal inhibition (IC50) worked out at 490 nM. Under `O=C(/C=C/c1ccc(O)c(O)c1)OCC(c1ccccc1)c1ccccc1` [Compound 19] stands 530 nM.
